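Tested at 5 concentrations; 48 h exposure; 96-well plates; endpoints linearly interpolated, else capped at highest concentration. TGI marks complete inhibition of growth.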
Assays:
Assay in all cases: growth of human tumour cells (NCI), 48 h
SK-MEL-2 melanoma = tested on: SK-MEL-2 melanoma
SN12C renal = tested on: SN12C renal
UACC-257 melanoma = tested on: UACC-257 melanoma
HCT-15 colon = tested on: HCT-15 colon
MDA-MB-435 = tested on: MDA-MB-435
EKVX NSCLC = tested on: EKVX NSCLC
SR leukemia = tested on: SR leukemia
T-47D breast = tested on: T-47D breast
TK-10 renal = tested on: TK-10 renal
ACHN renal = tested on: ACHN renal
NCI-H522 lung = tested on: NCI-H522 lung
DU-145 prostate = tested on: DU-145 prostate
U251 CNS = tested on: U251 CNS
UO-31 renal = tested on: UO-31 renal
OVCAR-3 ovarian = tested on: OVCAR-3 ovarian
SF-295 CNS = tested on: SF-295 CNS
KM12 colon = tested on: KM12 colon
COLO 205 colon = tested on: COLO 205 colon
MDA-MB-231 breast = tested on: MDA-MB-231 breast
HOP-62 NSCLC = tested on: HOP-62 NSCLC
MALME-3M melanoma = tested on: MALME-3M melanoma
OVCAR-8 ovarian = tested on: OVCAR-8 ovarian
NCI-H23 lung = tested on: NCI-H23 lung
MDA-N = tested on: MDA-N
NCI/ADR-RES ovarian = tested on: NCI/ADR-RES ovarian
786-0 renal = tested on: 786-0 renal
IGROV1 ovarian = tested on: IGROV1 ovarian
SNB-19 CNS = tested on: SNB-19 CNS
PC-3 prostate = tested on: PC-3 prostate
K-562 leukemia = tested on: K-562 leukemia
SK-MEL-5 melanoma = tested on: SK-MEL-5 melanoma
HCT-116 colon = tested on: HCT-116 colon
SK-MEL-28 melanoma = tested on: SK-MEL-28 melanoma
HT29 colon = tested on: HT29 colon
HCC-2998 colon = tested on: HCC-2998 colon
SF-268 CNS = tested on: SF-268 CNS
SK-OV-3 ovarian = tested on: SK-OV-3 ovarian
RPMI-8226 leukemia = tested on: RPMI-8226 leukemia
HS 578T breast = tested on: HS 578T breast
BT-549 breast = tested on: BT-549 breast
CCRF-CEM leukemia = tested on: CCRF-CEM leukemia
SF-539 CNS = tested on: SF-539 CNS
OVCAR-5 ovarian = tested on: OVCAR-5 ovarian
A549 NSCLC = tested on: A549 NSCLC
OVCAR-4 ovarian = tested on: OVCAR-4 ovarian
LOX IMVI melanoma = tested on: LOX IMVI melanoma
SW-620 colon = tested on: SW-620 colon
M14 melanoma = tested on: M14 melanoma
NCI-H226 lung = tested on: NCI-H226 lung
CAKI-1 renal = tested on: CAKI-1 renal
NCI-H460 lung = tested on: NCI-H460 lung
RXF 393 renal = tested on: RXF 393 renal
MOLT-4 leukemia = tested on: MOLT-4 leukemia
MCF7 breast = tested on: MCF7 breast
HL-60(TB) leukemia = tested on: HL-60(TB) leukemia
HOP-92 NSCLC = tested on: HOP-92 NSCLC
UACC-62 melanoma = tested on: UACC-62 melanoma
SNB-75 CNS = tested on: SNB-75 CNS
A498 renal = tested on: A498 renal

Measured: TGI

N#Cc1nc(CCN2C(=O)c3ccccc3C2=O)oc1N
> 100 µM: SK-MEL-2 melanoma | SN12C renal | UACC-257 melanoma | HCT-15 colon | MDA-MB-435 | EKVX NSCLC | SR leukemia | T-47D breast | TK-10 renal | ACHN renal | NCI-H522 lung | DU-145 prostate | U251 CNS | UO-31 renal | OVCAR-3 ovarian | SF-295 CNS | KM12 colon | COLO 205 colon | MDA-MB-231 breast | HOP-62 NSCLC | MALME-3M melanoma | OVCAR-8 ovarian | NCI-H23 lung | MDA-N | NCI/ADR-RES ovarian | 786-0 renal | IGROV1 ovarian | SNB-19 CNS | PC-3 prostate | K-562 leukemia | SK-MEL-5 melanoma | HCT-116 colon | SK-MEL-28 melanoma | HT29 colon | HCC-2998 colon | SF-268 CNS | SK-OV-3 ovarian | RPMI-8226 leukemia | HS 578T breast | BT-549 breast | CCRF-CEM leukemia | SF-539 CNS | OVCAR-5 ovarian | A549 NSCLC | OVCAR-4 ovarian | LOX IMVI melanoma | SW-620 colon | M14 melanoma | NCI-H226 lung | CAKI-1 renal | NCI-H460 lung | RXF 393 renal | MOLT-4 leukemia | MCF7 breast

O=c1[nH]c(Cc2ccccc2)nc2c1sc1nc3ccccc3n12
> 100 µM: SK-MEL-2 melanoma | SN12C renal | UACC-257 melanoma | HCT-15 colon | MDA-MB-435 | EKVX NSCLC | SR leukemia | T-47D breast | TK-10 renal | ACHN renal | NCI-H522 lung | DU-145 prostate | U251 CNS | UO-31 renal | OVCAR-3 ovarian | SF-295 CNS | KM12 colon | COLO 205 colon | MDA-MB-231 breast | HL-60(TB) leukemia | OVCAR-8 ovarian | NCI-H23 lung | MDA-N | NCI/ADR-RES ovarian | HOP-92 NSCLC | 786-0 renal | IGROV1 ovarian | SNB-19 CNS | PC-3 prostate | K-562 leukemia | SK-MEL-5 melanoma | HCT-116 colon | UACC-62 melanoma | SNB-75 CNS | SK-MEL-28 melanoma | HT29 colon | HCC-2998 colon | SF-268 CNS | SK-OV-3 ovarian | RPMI-8226 leukemia | HS 578T breast | BT-549 breast | CCRF-CEM leukemia | SF-539 CNS | OVCAR-5 ovarian | A549 NSCLC | OVCAR-4 ovarian | LOX IMVI melanoma | SW-620 colon | M14 melanoma | NCI-H226 lung | CAKI-1 renal | A498 renal | NCI-H460 lung | RXF 393 renal | MOLT-4 leukemia | MCF7 breast

Reference: PubChem BioAssay (NCI)
